Laboratory results as given in ChEMBL document CHEMBL4011641, “Prodrugs of Pyrazolo[3,4-d]pyrimidines: From Library Synthesis to Evaluation as Potential Anticancer Agents in an Orthotopic Glioblastoma Model” (J Med Chem, 2017).
Converted amounts (≈) assume the structure as drawn.

Columns and labels:
[1] = Antitumor activity against human U87 cells xenografted in nude immunodeficient CD1 mouse assessed as mean survival time at 50 mg/kg, po administered every other day (reference value: 30 day); format: functional, U-87MG ATCC
[2] = test system: Mus musculus; test: MRT in BALB/C mouse assessed as N-(3-bromophenyl)-1-(2-chloro-2-phenylethyl)-6-(2-morpholinoethylthio)-1H-pyrazolo[3,4-d]pyrimidin-4-amine level at 50 mg/kg administered through oral gavage as methylcellulose formulation measured at 1 to 24 hrs post dose by UV/LC-MS analysis; format: ADME, organism-based; conditions: in vivo
[3] = test system: Mus musculus; test: Tmax in BALB/C mouse assessed as N-(3-bromophenyl)-1-(2-chloro-2-phenylethyl)-6-(2-morpholinoethylthio)-1H-pyrazolo[3,4-d]pyrimidin-4-amine level at 50 mg/kg administered through oral gavage as methylcellulose formulation measured at 1 to 24 hrs post dose by UV/LC-MS analysis; format: ADME, organism-based; conditions: in vivo
[4] = Metabolic stability in human liver microsomes assessed as parent compound remaining at 50 uM after 1 hr in presence of NADPH regenerating system by UV/LC-MS analysis; format: ADME, microsome; conditions: read-out: Stability
[5] = Metabolic stability in mouse liver microsomes assessed as unmetabolized compound remaining at 50 uM after 1 hr in presence of NADPH regenerating system by UV/LC-MS analysis; format: ADME, microsome; conditions: read-out: Stability
[6] = Plasma concentration in BALB/C mouse at 50 mg/kg, ip via bolus administration measured at 24 hrs post dose by UV/LC-MS; format: ADME, organism-based
[7] = test system: Brain; test: Drug uptake in BALB/C mouse brain at 50 mg/kg, ip via bolus administration measured at 24 hrs post dose by UV/LC-MS analysis; format: ADME, organism-based; conditions: in vivo
[8] = Cmax in BALB/C mouse at 50 mg/kg, ip administered via bolus dose using DMSO formulation measured at 1 to 24 hrs post dose by UV/LC-MS analysis; format: ADME, organism-based; set-up: dose 50 mg/kg, route intraperitoneal; conditions: in vivo
[9] = Tmax in BALB/C mouse at 50 mg/kg, ip administered via bolus dose using DMSO formulation measured at 1 to 24 hrs post dose by UV/LC-MS analysis; format: ADME, organism-based; conditions: in vivo
[10] = MRT in BALB/C mouse at 50 mg/kg, ip administered via bolus dose using DMSO formulation measured at 1 to 24 hrs post dose by UV/LC-MS analysis; format: ADME, organism-based; conditions: in vivo
[11] = AUC (0 to infinity) in BALB/C mouse at 50 mg/kg, ip administered via bolus dose using DMSO formulation measured at 1 to 24 hrs post dose by UV/LC-MS analysis; format: ADME, organism-based; set-up: dose 50 mg/kg, time infinity, route intraperitoneal; conditions: in vivo
[12] = AUC (0 to 24 hrs) in BALB/C mouse at 50 mg/kg, ip administered via bolus dose using DMSO formulation measured at 1 to 24 hrs post dose by UV/LC-MS analysis; format: ADME, organism-based; set-up: dose 50 mg/kg, time < 24 hr, route intraperitoneal; conditions: in vivo
[13] = Plasma clearance in BALB/C mouse at 50 mg/kg, ip administered via bolus dose using DMSO formulation measured at 1 to 24 hrs post dose by UV/LC-MS analysis; format: ADME, organism-based
[14] = Half life in BALB/C mouse at 50 mg/kg, ip administered via bolus dose using DMSO formulation measured at 1 to 24 hrs post dose by UV/LC-MS analysis; format: ADME, organism-based; conditions: in vivo
[15] = test system: Mus musculus; test: Cmax in BALB/C mouse assessed as N-(3-bromophenyl)-1-(2-chloro-2-phenylethyl)-6-(2-morpholinoethylthio)-1H-pyrazolo[3,4-d]pyrimidin-4-amine level at 50 mg/kg, ip administered via bolus dose using DMSO formulation measured at 1 to 24 hrs post dose by UV/LC-MS analysis; format: ADME, organism-based; set-up: dose 50 mg/kg, route intraperitoneal; conditions: in vivo
[16] = test system: Mus musculus; test: Tmax in BALB/C mouse assessed as N-(3-bromophenyl)-1-(2-chloro-2-phenylethyl)-6-(2-morpholinoethylthio)-1H-pyrazolo[3,4-d]pyrimidin-4-amine level at 50 mg/kg, ip administered via bolus dose using DMSO formulation measured at 1 to 24 hrs post dose by UV/LC-MS analysis; format: ADME, organism-based; conditions: in vivo
[17] = test system: Mus musculus; test: MRT in BALB/C mouse assessed as N-(3-bromophenyl)-1-(2-chloro-2-phenylethyl)-6-(2-morpholinoethylthio)-1H-pyrazolo[3,4-d]pyrimidin-4-amine level at 50 mg/kg, ip administered via bolus dose using DMSO formulation measured at 1 to 24 hrs post dose by UV/LC-MS analysis; format: ADME, organism-based; conditions: in vivo
[18] = test system: Mus musculus; test: AUC (0 to infinity) in BALB/C mouse assessed as N-(3-bromophenyl)-1-(2-chloro-2-phenylethyl)-6-(2-morpholinoethylthio)-1H-pyrazolo[3,4-d]pyrimidin-4-amine level at 50 mg/kg, ip administered via bolus dose using DMSO formulation measured at 1 to 24 hrs post dose by UV/LC-MS analysis; format: ADME, organism-based; set-up: dose 50 mg/kg, time infinity, route intraperitoneal; conditions: in vivo
[19] = test system: Mus musculus; test: AUC (0 to 24 hrs) in BALB/C mouse assessed as N-(3-bromophenyl)-1-(2-chloro-2-phenylethyl)-6-(2-morpholinoethylthio)-1H-pyrazolo[3,4-d]pyrimidin-4-amine level at 50 mg/kg, ip administered via bolus dose using DMSO formulation measured at 1 to 24 hrs post dose by UV/LC-MS analysis; format: ADME, organism-based; set-up: dose 50 mg/kg, time < 24 hr, route intraperitoneal; conditions: in vivo
[20] = test system: Mus musculus; test: Plasma clearance in BALB/C mouse assessed as N-(3-bromophenyl)-1-(2-chloro-2-phenylethyl)-6-(2-morpholinoethylthio)-1H-pyrazolo[3,4-d]pyrimidin-4-amine level at 50 mg/kg, ip administered via bolus dose using DMSO formulation measured at 1 to 24 hrs post dose by UV/LC-MS analysis; format: ADME, organism-based; conditions: in vivo
[21] = test system: Mus musculus; test: Half life in BALB/C mouse assessed as N-(3-bromophenyl)-1-(2-chloro-2-phenylethyl)-6-(2-morpholinoethylthio)-1H-pyrazolo[3,4-d]pyrimidin-4-amine level at 50 mg/kg, ip administered via bolus dose using DMSO formulation measured at 1 to 24 hrs post dose by UV/LC-MS analysis; format: ADME, organism-based; conditions: in vivo
[22] = test system: Mus musculus; test: Cmax in BALB/C mouse assessed as N-(3-bromophenyl)-1-(2-chloro-2-phenylethyl)-6-(2-morpholinoethylthio)-1H-pyrazolo[3,4-d]pyrimidin-4-amine level at 50 mg/kg administered through oral gavage as methylcellulose formulation measured at 1 to 24 hrs post dose by UV/LC-MS analysis; format: ADME, organism-based; set-up: dose 50 mg/kg, route oral; conditions: in vivo
[23] = test system: Mus musculus; test: AUC (0 to infinity) in BALB/C mouse assessed as N-(3-bromophenyl)-1-(2-chloro-2-phenylethyl)-6-(2-morpholinoethylthio)-1H-pyrazolo[3,4-d]pyrimidin-4-amine level at 50 mg/kg administered through oral gavage as methylcellulose formulation measured at 1 to 24 hrs post dose by UV/LC-MS analysis; format: ADME, organism-based; set-up: dose 50 mg/kg, route oral, time infinity; conditions: in vivo
[24] = test system: Mus musculus; test: AUC (0 to 24 hrs) in BALB/C mouse assessed as N-(3-bromophenyl)-1-(2-chloro-2-phenylethyl)-6-(2-morpholinoethylthio)-1H-pyrazolo[3,4-d]pyrimidin-4-amine level at 50 mg/kg administered through oral gavage as methylcellulose formulation measured at 1 to 24 hrs post dose by UV/LC-MS analysis; format: ADME, organism-based; set-up: dose 50 mg/kg, time < 24 hr, route oral; conditions: in vivo
[25] = test system: Mus musculus; test: Plasma clearance in BALB/C mouse assessed as N-(3-bromophenyl)-1-(2-chloro-2-phenylethyl)-6-(2-morpholinoethylthio)-1H-pyrazolo[3,4-d]pyrimidin-4-amine level at 50 mg/kg administered through oral gavage as methylcellulose formulation measured at 1 to 24 hrs post dose by UV/LC-MS analysis; format: ADME, organism-based; conditions: in vivo
[26] = test system: Mus musculus; test: Half life in BALB/C mouse assessed as N-(3-bromophenyl)-1-(2-chloro-2-phenylethyl)-6-(2-morpholinoethylthio)-1H-pyrazolo[3,4-d]pyrimidin-4-amine level at 50 mg/kg administered through oral gavage as methylcellulose formulation measured at 1 to 24 hrs post dose by UV/LC-MS analysis; format: ADME, organism-based; conditions: in vivo
[27] = test system: Kidney; test: Drug uptake in BALB/C mouse kidney at 50 mg/kg, ip via bolus administration measured at 24 hrs post dose by UV/LC-MS; format: ADME, organism-based; conditions: in vivo
[28] = Drug uptake in BALB/C mouse adipose tissue at 50 mg/kg, ip via bolus administration measured at 24 hrs post dose by UV/LC-MS; format: ADME, organism-based; conditions: in vivo
[29] = test system: Liver; test: Drug uptake in BALB/C mouse liver at 50 mg/kg, ip via bolus administration measured at 24 hrs post dose by UV/LC-MS; format: ADME, organism-based; conditions: in vivo
[30] = cells; conditions: Homo sapiens, U-87 MG, 24 h
Description: Cytotoxicity against human U87 cells assessed as reduction in cell viability after 24 hrs by trypan blue assay

[31] = cells; conditions: Homo sapiens, U-87 MG, 48 h
Description: Cytotoxicity against human U87 cells assessed as reduction in cell viability after 48 hrs by trypan blue assay

[32] = cells; conditions: Homo sapiens, U-87 MG, 72 h
Description: Cytotoxicity against human U87 cells assessed as reduction in cell viability after 72 hrs by trypan blue assay

[33] = physchem; conditions: PAMPA
Description: Apparent permeability at 500 uM after 5 hrs by Blood-Brain Barrier-based PAMPA

[34] = physchem; conditions: aqueous
Description: Aqueous solubility of compound at 1 mg after 24 hrs by UV/LC-MS analysis

SMILES: ClC(Cn1ncc2c(Nc3cccc(Br)c3)nc(SCCN3CCOCC3)nc21)c1ccccc1 (centres undefined)
- MST [1]: 44 days
- MRT [2]: 11.97 h
- Tmax [3]: 2 h
- remaining at 1 h, 50 µM [4]: 97.2%
- remaining at 1 h, 50 µM [5]: 89.2%
- concentration at 24 h [6]: 2.6 µM
- Drug uptake [7]: 2.7 nmol/g
- Cmax [8]: 6.83 µM
- Tmax [9]: 0.5 h
- MRT [10]: 19.1 h
- AUC(0-inf) [11]: 79.7 µM·h
- AUC(0-t) at 24 h [12]: 56.1 µM·h
- CL/F [13]: 0.46 mL/min
- half-life [14]: 14.8 h
- Cmax [15]: 6.07 µM
- Tmax [16]: 1.5 h
- MRT [17]: 46.62 h
- AUC [18]: 135.11 µM·h
- AUC [19]: 55.14 µM·h
- CL [20]: 0.27 mL/min
- t1/2 [21]: 33.3 h
- Cmax [22]: 5.35 µM
- AUC [23]: 43.53 µM·h
- AUC [24]: 36.69 µM·h
- CL [25]: 1.14 mL/min
- t1/2 [26]: 9.06 h
- Drug uptake [27]: 3.6 nmol/g
- Drug uptake [28]: 51.2 nmol/g
- Drug uptake [29]: 1.7 nmol/g
- IC50 [30]: 17.3 µM
- IC50 [31]: 6.8 µM
- IC50 [32]: 1.9 µM
- Papp at 5 h, 500 µM [33]: 7.1 ×10⁻⁶ cm/s
- solubility at 24 h [34]: 3.7 µg/mL (≈ 6.45 µM)
